pIC50: −log10 of the molar value.
Target: T1, ATP-citrate synthase (Homo sapiens, UniProt P53396)
T1 sequence (P53396 whole entry): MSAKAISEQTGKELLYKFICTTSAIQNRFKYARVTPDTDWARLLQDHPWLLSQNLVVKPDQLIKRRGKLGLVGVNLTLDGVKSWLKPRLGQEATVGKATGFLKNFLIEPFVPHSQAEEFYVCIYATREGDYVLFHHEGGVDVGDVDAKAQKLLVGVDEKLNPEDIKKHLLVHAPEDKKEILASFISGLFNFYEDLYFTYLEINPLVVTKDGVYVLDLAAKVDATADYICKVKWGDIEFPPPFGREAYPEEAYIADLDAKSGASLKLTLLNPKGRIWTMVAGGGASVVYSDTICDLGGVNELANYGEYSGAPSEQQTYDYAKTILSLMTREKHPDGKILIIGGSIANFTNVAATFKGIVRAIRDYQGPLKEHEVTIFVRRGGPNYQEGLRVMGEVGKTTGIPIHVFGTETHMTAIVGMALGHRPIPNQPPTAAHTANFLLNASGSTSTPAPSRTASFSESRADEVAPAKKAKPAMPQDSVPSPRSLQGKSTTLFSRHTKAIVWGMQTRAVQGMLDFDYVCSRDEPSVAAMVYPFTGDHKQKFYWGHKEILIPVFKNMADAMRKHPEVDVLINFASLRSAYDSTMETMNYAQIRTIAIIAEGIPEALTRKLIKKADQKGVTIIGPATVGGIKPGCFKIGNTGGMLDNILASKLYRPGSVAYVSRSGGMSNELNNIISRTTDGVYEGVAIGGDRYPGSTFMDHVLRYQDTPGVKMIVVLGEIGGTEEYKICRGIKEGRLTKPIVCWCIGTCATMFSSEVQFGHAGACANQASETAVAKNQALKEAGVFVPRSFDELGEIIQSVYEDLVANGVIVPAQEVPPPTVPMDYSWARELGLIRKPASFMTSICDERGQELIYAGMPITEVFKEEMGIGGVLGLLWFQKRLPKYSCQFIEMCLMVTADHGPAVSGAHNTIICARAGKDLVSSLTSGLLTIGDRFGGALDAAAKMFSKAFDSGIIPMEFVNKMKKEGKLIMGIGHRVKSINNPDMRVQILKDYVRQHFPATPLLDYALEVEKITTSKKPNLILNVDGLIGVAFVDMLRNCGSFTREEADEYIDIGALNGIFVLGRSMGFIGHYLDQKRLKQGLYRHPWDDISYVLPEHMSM
Assay: ADP-Glo Assay: Compounds of the present invention were evaluated in an ADP-GLO assay as follows:a) Dilute cpd 1:3 in succession in DMSO by hand for each cpds for 12 ptsb) Add 0.1 μL diluted cpd solution to assay plate, each dose with 2 replicatesc) Centrifuge 1000 RPM for 1 mind) Add 5 μL ACL working solution to 384-well assay plate, centrifuge 1000 RPM for 1 mine) Incubate at 25° C. for 15 minf) Add 5 μL substrate working solution to initiate reactiong) Final ACL reaction concentrations: 3 nM ACL, 15 μM ATP, 3 μM CoA, 300 μM Citrate, 0.01% Brij35, 4 mM DTT, 1% DMSO;h) Reference final conc: 30 uM starting Conc, 3× dilution, 11+0 points. Test cpd conc: 30/100 uM starting Conc, 3× dilution, 11+0 points.i) Incubate at 25° C. for 60 minj) Add 10 μL ADP Glo reagent, centrifuge 1000 RPM for 1 mink) Incubate at 25° C. for 40 minl) Add 20 μL kinase detection reagent, centrifuge 1000 RPM for 1 minm) Incubate at 25° C. for 40 minn) Read on Envision for US LUM as RLU.

| Compound | pIC50 |
| --- | --- |
| O=S(=O)(c1cc(Cl)cc(Cl)c1)n1c(-c2cncnc2)cc2cc(Cl)ccc21 | < 4.70 |
| O=C(O)c1cc2cc(Cl)ccc2n1S(=O)(=O)c1cc(Cl)cc(Cl)c1 | > 6.30 |
